# Measurements taken from PubChem BioAssay (NCI).
# Where “and” joins values, the source holds several entries; their conditions need not be identical. Equal values may be shown once.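 Interpolation was linear, between the two tested concentrations surrounding the appropriate level; five concentrations were tested over 48 hours in 96-well plates. Abbreviation: GI50, concentration required for 50% inhibition of growth. TGI: concentration producing complete growth inhibition.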
# Key:
# Assay in all cases: NCI tumour cell line growth inhibition, 48 h
# HL-60(TB) leukemia = test system: HL-60(TB) leukemia
# HT29 colon = test system: HT29 colon
# IGROV1 ovarian = test system: IGROV1 ovarian
# MALME-3M melanoma = test system: MALME-3M melanoma
# NCI-H23 lung = test system: NCI-H23 lung
# NCI-H460 lung = test system: NCI-H460 lung
# OVCAR-4 ovarian = test system: OVCAR-4 ovarian
# RPMI-8226 leukemia = test system: RPMI-8226 leukemia
# RXF 393 renal = test system: RXF 393 renal
# MDA-MB-231 breast = test system: MDA-MB-231 breast
structure (smiles),measurement,setting,value
O=C1[C@H]2ON(c3ccccc3)C(c3cccc([N+](=O)[O-])c3)[C@H]2C(=O)N1c1ccc(Cc2ccc(N3C(=O)[C@@H]4ON(c5ccccc5)C(c5cccc([N+](=O)[O-])c5)[C@@H]4C3=O)cc2)cc1 (stereo partly drawn),TGI,HL-60(TB) leukemia,> 100 µM
same,TGI,HT29 colon,> 100 µM
same,TGI,IGROV1 ovarian,> 100 µM
same,TGI,MALME-3M melanoma,> 100 µM
same,TGI,NCI-H23 lung,> 100 µM
same,TGI,NCI-H460 lung,> 100 µM
same,TGI,OVCAR-4 ovarian,> 100 µM
same,TGI,RPMI-8226 leukemia,> 100 µM
same,TGI,RXF 393 renal,> 100 µM
O=C1Cc2ccccc2CCc2ccccc21,TGI,HL-60(TB) leukemia,> 100 µM
same,TGI,HT29 colon,> 100 µM
same,TGI,IGROV1 ovarian,> 100 µM
same,TGI,MALME-3M melanoma,> 100 µM
same,TGI,NCI-H23 lung,> 100 µM
same,TGI,NCI-H460 lung,> 100 µM
same,TGI,OVCAR-4 ovarian,> 100 µM
same,TGI,RPMI-8226 leukemia,> 100 µM
same,TGI,RXF 393 renal,> 100 µM
O=C(NOC(=O)c1ccc([N+](=O)[O-])cc1)c1ccc(Cl)cc1,TGI,HL-60(TB) leukemia,34.3 µM
same,TGI,HT29 colon,> 100 µM
same,TGI,IGROV1 ovarian,59.4 µM
same,TGI,MALME-3M melanoma,> 100 µM
same,TGI,NCI-H23 lung,> 100 µM
same,TGI,NCI-H460 lung,> 100 µM
same,TGI,OVCAR-4 ovarian,> 100 µM
same,TGI,RPMI-8226 leukemia,> 100 µM
same,TGI,RXF 393 renal,> 100 µM
COC(=O)Cc1cc(=O)oc2c1C(=O)CCC2,TGI,HL-60(TB) leukemia,> 100 µM
same,TGI,HT29 colon,> 100 µM
same,TGI,IGROV1 ovarian,> 100 µM
same,TGI,MALME-3M melanoma,> 100 µM
same,TGI,NCI-H23 lung,> 100 µM
same,TGI,NCI-H460 lung,> 100 µM
same,TGI,OVCAR-4 ovarian,> 100 µM
same,TGI,RPMI-8226 leukemia,> 100 µM
same,TGI,RXF 393 renal,> 100 µM
COc1cc(-c2nn3c(=O)n(-c4ccc(Cl)cc4)c(=O)nc3s2)cc(OC)c1OC,GI50,HL-60(TB) leukemia,> 100 µM
same,TGI,HL-60(TB) leukemia,> 100 µM
same,GI50,HT29 colon,> 50 µM
same,TGI,HT29 colon,> 100 µM
same,GI50,IGROV1 ovarian,> 50 µM
same,TGI,IGROV1 ovarian,> 100 µM
same,GI50,MALME-3M melanoma,> 50 µM
same,TGI,MALME-3M melanoma,> 100 µM
same,GI50,NCI-H23 lung,> 50 µM
same,TGI,NCI-H23 lung,> 100 µM
same,GI50,NCI-H460 lung,> 50 µM
same,TGI,NCI-H460 lung,> 100 µM
same,GI50,OVCAR-4 ovarian,16.1 µM
same,TGI,OVCAR-4 ovarian,50 µM and 99.8 µM
same,GI50,RPMI-8226 leukemia,> 100 µM
same,TGI,RPMI-8226 leukemia,> 100 µM
same,GI50,RXF 393 renal,14.7 µM
same,TGI,RXF 393 renal,40.7 µM and 21.6 µM
CC[C@H](C)[C@H](NC(=O)N[C@@H](C)c1ccccc1)C(=O)N(C)[C@H](C[C@@H](OC(C)=O)c1nc(C(=O)N[C@@H](Cc2ccccc2)C[C@H](C)C(=O)OC)cs1)C(C)C,GI50,HT29 colon,28.3 µM
same,TGI,HT29 colon,> 100 µM
same,GI50,IGROV1 ovarian,20.9 µM
same,TGI,IGROV1 ovarian,> 100 µM
same,GI50,MALME-3M melanoma,> 100 µM
same,TGI,MALME-3M melanoma,> 100 µM
same,GI50,MDA-MB-231 breast,20.7 µM
same,TGI,MDA-MB-231 breast,63.8 µM
same,GI50,NCI-H23 lung,28.2 µM
same,TGI,NCI-H23 lung,> 100 µM
same,GI50,NCI-H460 lung,26.6 µM
same,TGI,NCI-H460 lung,95.5 µM
same,GI50,OVCAR-4 ovarian,38.5 µM
same,TGI,OVCAR-4 ovarian,> 100 µM
same,GI50,RPMI-8226 leukemia,8.74 µM
same,TGI,RPMI-8226 leukemia,> 100 µM
same,GI50,RXF 393 renal,13.9 µM
same,TGI,RXF 393 renal,57.3 µM
O=C1OC(c2ccc(Cl)c3ccccc23)c2ccccc21 (stereo not drawn),TGI,HL-60(TB) leukemia,> 100 µM
same,TGI,HT29 colon,> 100 µM
same,TGI,IGROV1 ovarian,> 100 µM
same,TGI,MALME-3M melanoma,> 100 µM
same,TGI,NCI-H23 lung,> 100 µM
same,TGI,NCI-H460 lung,> 100 µM
same,TGI,OVCAR-4 ovarian,> 100 µM
same,TGI,RPMI-8226 leukemia,> 100 µM
same,TGI,RXF 393 renal,> 100 µM
COc1cc(/C=C2\C(=O)Nc3ccc(Br)cc32)cc(OC)c1OC,GI50,HL-60(TB) leukemia,4.36 µM
same,TGI,HL-60(TB) leukemia,> 100 µM
same,GI50,HT29 colon,3.82 µM
same,TGI,HT29 colon,> 100 µM
same,GI50,IGROV1 ovarian,2.29 µM
same,TGI,IGROV1 ovarian,17 µM
same,GI50,MALME-3M melanoma,0.606 µM
same,TGI,MALME-3M melanoma,16.8 µM
same,GI50,MDA-MB-231 breast,7.68 µM
same,TGI,MDA-MB-231 breast,> 52.9 µM
same,GI50,NCI-H23 lung,8.07 µM
same,TGI,NCI-H23 lung,66 µM
same,GI50,NCI-H460 lung,8.76 µM
same,TGI,NCI-H460 lung,> 100 µM
same,GI50,OVCAR-4 ovarian,> 29 µM
same,TGI,OVCAR-4 ovarian,> 100 µM
same,GI50,RPMI-8226 leukemia,1.31 µM
same,TGI,RPMI-8226 leukemia,> 41.8 µM
COc1cc(/C=C2/C(=O)N(C(=O)c3ccccc3O)N=C2C)ccc1O,TGI,HL-60(TB) leukemia,> 52.9 µM
same,TGI,HT29 colon,> 100 µM
same,TGI,IGROV1 ovarian,2.06 µM
same,TGI,MALME-3M melanoma,> 100 µM
same,TGI,MDA-MB-231 breast,> 100 µM
same,TGI,NCI-H460 lung,> 100 µM
same,TGI,OVCAR-4 ovarian,> 100 µM
same,TGI,RPMI-8226 leukemia,> 100 µM
C(/C=C/N1CCCC1)=C\c1nc(N2CCCC2)c2ccccc2n1,TGI,HL-60(TB) leukemia,61.3 µM
same,TGI,HT29 colon,39.4 µM
same,TGI,IGROV1 ovarian,39.6 µM
same,TGI,MALME-3M melanoma,33 µM
same,TGI,NCI-H23 lung,32.9 µM
same,TGI,NCI-H460 lung,33.6 µM
same,TGI,OVCAR-4 ovarian,27.8 µM
same,TGI,RPMI-8226 leukemia,42.3 µM
CC12O[Te]34OC1(C)C(C)(O3)C2(C)O4,TGI,HT29 colon,30.3 µM
same,TGI,IGROV1 ovarian,24.9 µM
same,TGI,MALME-3M melanoma,32.7 µM
same,TGI,NCI-H23 lung,34.8 µM
same,TGI,NCI-H460 lung,61.3 µM
same,TGI,OVCAR-4 ovarian,27.4 µM
same,TGI,RXF 393 renal,27 µM
O=C(O)C(O)c1ccc(F)cc1 (stereo not drawn),TGI,HT29 colon,> 100 µM
same,TGI,IGROV1 ovarian,> 100 µM
same,TGI,MALME-3M melanoma,> 100 µM
same,TGI,MDA-MB-231 breast,> 100 µM
same,TGI,NCI-H23 lung,> 100 µM
same,TGI,NCI-H460 lung,> 100 µM
same,TGI,OVCAR-4 ovarian,> 100 µM
same,TGI,RPMI-8226 leukemia,> 100 µM
same,TGI,RXF 393 renal,> 100 µM
Nc1nc(Cl)cc(NCCCCCCNc2cc(Cl)nc(N)n2)n1,TGI,HL-60(TB) leukemia,> 100 µM
same,TGI,HT29 colon,> 100 µM
same,TGI,IGROV1 ovarian,> 100 µM
same,TGI,NCI-H23 lung,> 100 µM
same,TGI,NCI-H460 lung,> 100 µM
same,TGI,OVCAR-4 ovarian,> 100 µM
same,TGI,RPMI-8226 leukemia,> 100 µM
same,TGI,RXF 393 renal,> 100 µM
N#Cc1c(-c2ccc(Cl)cc2)csc1NC(=O)Nc1cccc(C(F)(F)F)c1,GI50,HL-60(TB) leukemia,2.43 µM
same,TGI,HL-60(TB) leukemia,6.69 µM
same,GI50,HT29 colon,2.5 µM
same,TGI,HT29 colon,10.5 µM
same,GI50,IGROV1 ovarian,3.51 µM
same,TGI,IGROV1 ovarian,14.2 µM
same,GI50,MDA-MB-231 breast,1.78 µM
same,TGI,MDA-MB-231 breast,3.72 µM
same,GI50,NCI-H23 lung,1.99 µM
same,TGI,NCI-H23 lung,5.33 µM
same,GI50,NCI-H460 lung,2.76 µM
same,TGI,NCI-H460 lung,10.2 µM
same,GI50,OVCAR-4 ovarian,3.2 µM
same,TGI,OVCAR-4 ovarian,14.4 µM
same,GI50,RPMI-8226 leukemia,1.84 µM
same,TGI,RPMI-8226 leukemia,7 µM
same,GI50,RXF 393 renal,2.33 µM
same,TGI,RXF 393 renal,5.96 µM
CCOc1ccccc1NC(=O)CCC(=O)NN,TGI,HL-60(TB) leukemia,> 100 µM
same,TGI,HT29 colon,> 100 µM
same,TGI,IGROV1 ovarian,> 100 µM
same,TGI,MALME-3M melanoma,> 100 µM
same,TGI,NCI-H23 lung,> 100 µM
same,TGI,NCI-H460 lung,> 100 µM
same,TGI,OVCAR-4 ovarian,> 100 µM
same,TGI,RPMI-8226 leukemia,> 100 µM
same,TGI,RXF 393 renal,> 100 µM
N#CC1=C(N)Oc2c(sc3c(Br)cccc23)C1c1ccc(F)cc1 (stereo not drawn),GI50,HL-60(TB) leukemia,0.204 µM
same,TGI,HL-60(TB) leukemia,1.02 µM
same,GI50,HT29 colon,0.367 µM
same,TGI,HT29 colon,10.3 µM
same,GI50,IGROV1 ovarian,0.605 µM
same,TGI,IGROV1 ovarian,21 µM
same,GI50,MDA-MB-231 breast,0.824 µM
same,TGI,MDA-MB-231 breast,15.9 µM
same,GI50,NCI-H23 lung,0.416 µM
same,TGI,NCI-H23 lung,17.9 µM
same,GI50,NCI-H460 lung,0.376 µM
same,TGI,NCI-H460 lung,14.6 µM
same,GI50,OVCAR-4 ovarian,0.65 µM
same,TGI,OVCAR-4 ovarian,23.4 µM
same,GI50,RPMI-8226 leukemia,0.482 µM
same,TGI,RPMI-8226 leukemia,19.7 µM
c1cc2ccc1C1NCCCN1CCN1CCCNC1c1ccc(cc1)C1NCCCN1CCN1CCCNC21 (stereo not drawn),TGI,HL-60(TB) leukemia,67.8 µM
same,TGI,HT29 colon,> 100 µM
same,TGI,IGROV1 ovarian,> 100 µM
same,TGI,MALME-3M melanoma,> 100 µM
same,TGI,NCI-H23 lung,> 100 µM
same,TGI,NCI-H460 lung,> 100 µM
same,TGI,OVCAR-4 ovarian,> 100 µM
same,TGI,RPMI-8226 leukemia,> 100 µM
O=C(O)C(CS)N=Cc1nc(-c2ccccc2)oc1O (stereo not drawn),TGI,HL-60(TB) leukemia,> 100 µM
same,TGI,HT29 colon,> 100 µM
same,TGI,IGROV1 ovarian,> 100 µM
same,TGI,MALME-3M melanoma,> 100 µM
same,TGI,NCI-H23 lung,> 100 µM
same,TGI,NCI-H460 lung,> 100 µM
same,TGI,OVCAR-4 ovarian,> 100 µM
same,TGI,RPMI-8226 leukemia,> 100 µM
same,TGI,RXF 393 renal,> 100 µM
CN1C=C(C(N)=O)C2CC(O)[C@@](NC(=O)CS(N)(=O)=O)(C(=O)O)C2C1 (stereo partly drawn),TGI,HL-60(TB) leukemia,> 100 µM
same,TGI,HT29 colon,10.6 µM
same,TGI,IGROV1 ovarian,7.83 µM
same,TGI,MALME-3M melanoma,20.3 µM
same,TGI,NCI-H23 lung,3.48 µM
same,TGI,NCI-H460 lung,12.6 µM
same,TGI,OVCAR-4 ovarian,4.15 µM
same,TGI,RPMI-8226 leukemia,58.9 µM
same,TGI,RXF 393 renal,4.16 µM
